Data published in ChEMBL document CHEMBL5120794, “Development of 5-hydroxyl-1-azabenzanthrone derivatives as dual binding site and selective acetylcholinesterase inhibitors” (Eur J Med Chem, 2022).
Active and inactive are the calls of the source. No cut-off for these calls is given here.

Key:
[1] = target: Acetylcholinesterase (Electrophorus electricus, UniProt O42275); test: Inhibition of Electrophorus electricus AchE using […] as substrate incubated for 10 mins followed by substrate addition measured at 0 to 180 secs by Ellman's method
[2] = target: Amyloid-beta precursor protein (Homo sapiens) (UniProt P05067); test: Inhibition of amyloid beta (1 to 42) (unknown origin) self-induced aggregation at 25 uM measured after 46 to 48 hrs by Thioflavin binding assay relative to control; conditions: time 46-48 hrs
[3] = test system: PC-12; test: Cytoprotective activity against H2O2-induced oxidative damage in rat PC-12 cells assessed as cell viability at 1 uM preincubated for 4 hrs followed by H2O2 treatment for another 24 hrs by MTT assay; type: functional, cell-based; conditions: time 28.0 hrs
[4] = target: Cholinesterase (Equus caballus, UniProt P81908)
Cholinesterase, sequence (P81908 whole entry): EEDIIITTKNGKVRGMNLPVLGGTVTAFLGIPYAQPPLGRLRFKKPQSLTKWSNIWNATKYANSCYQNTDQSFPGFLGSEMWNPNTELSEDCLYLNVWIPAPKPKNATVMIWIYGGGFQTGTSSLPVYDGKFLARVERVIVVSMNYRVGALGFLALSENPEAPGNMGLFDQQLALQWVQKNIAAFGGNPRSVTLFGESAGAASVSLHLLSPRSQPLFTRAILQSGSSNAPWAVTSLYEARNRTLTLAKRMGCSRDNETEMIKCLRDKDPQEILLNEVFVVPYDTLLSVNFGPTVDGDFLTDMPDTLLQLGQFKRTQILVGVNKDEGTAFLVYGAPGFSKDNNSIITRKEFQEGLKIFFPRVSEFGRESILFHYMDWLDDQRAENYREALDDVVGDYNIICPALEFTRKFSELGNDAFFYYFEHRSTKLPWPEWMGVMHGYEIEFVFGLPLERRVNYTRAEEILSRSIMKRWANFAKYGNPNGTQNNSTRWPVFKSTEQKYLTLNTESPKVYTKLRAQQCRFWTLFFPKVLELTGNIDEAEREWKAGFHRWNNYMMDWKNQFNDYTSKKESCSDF
Description: Inhibition of equine serum BchE using S-butyryl thiocholine iodide as substrate incubated for 10 mins followed by substrate addition measured at 0 to 180 secs by Ellman's method

Amyloid-beta precursor protein (Homo sapiens), sequence (P05067 whole entry): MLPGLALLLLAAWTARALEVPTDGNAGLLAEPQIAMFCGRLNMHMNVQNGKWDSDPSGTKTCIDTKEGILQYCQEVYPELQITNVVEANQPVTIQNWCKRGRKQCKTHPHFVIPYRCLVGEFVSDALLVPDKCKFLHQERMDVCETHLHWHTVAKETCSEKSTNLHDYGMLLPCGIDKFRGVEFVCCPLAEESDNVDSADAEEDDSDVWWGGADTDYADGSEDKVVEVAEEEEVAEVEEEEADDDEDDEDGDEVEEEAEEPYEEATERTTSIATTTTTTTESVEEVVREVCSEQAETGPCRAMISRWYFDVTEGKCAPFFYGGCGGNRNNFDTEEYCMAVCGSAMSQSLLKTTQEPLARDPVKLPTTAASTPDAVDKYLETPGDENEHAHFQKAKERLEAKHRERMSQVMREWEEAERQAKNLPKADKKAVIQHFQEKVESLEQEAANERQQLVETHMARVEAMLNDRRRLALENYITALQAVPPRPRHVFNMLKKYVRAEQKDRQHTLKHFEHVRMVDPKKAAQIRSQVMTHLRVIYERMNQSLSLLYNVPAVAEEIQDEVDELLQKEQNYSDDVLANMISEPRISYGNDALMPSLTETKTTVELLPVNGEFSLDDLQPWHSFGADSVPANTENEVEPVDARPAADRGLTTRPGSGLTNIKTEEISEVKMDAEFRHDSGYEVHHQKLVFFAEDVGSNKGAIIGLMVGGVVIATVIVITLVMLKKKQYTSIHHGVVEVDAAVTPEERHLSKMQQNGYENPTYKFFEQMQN
Acetylcholinesterase, sequence (O42275 whole entry): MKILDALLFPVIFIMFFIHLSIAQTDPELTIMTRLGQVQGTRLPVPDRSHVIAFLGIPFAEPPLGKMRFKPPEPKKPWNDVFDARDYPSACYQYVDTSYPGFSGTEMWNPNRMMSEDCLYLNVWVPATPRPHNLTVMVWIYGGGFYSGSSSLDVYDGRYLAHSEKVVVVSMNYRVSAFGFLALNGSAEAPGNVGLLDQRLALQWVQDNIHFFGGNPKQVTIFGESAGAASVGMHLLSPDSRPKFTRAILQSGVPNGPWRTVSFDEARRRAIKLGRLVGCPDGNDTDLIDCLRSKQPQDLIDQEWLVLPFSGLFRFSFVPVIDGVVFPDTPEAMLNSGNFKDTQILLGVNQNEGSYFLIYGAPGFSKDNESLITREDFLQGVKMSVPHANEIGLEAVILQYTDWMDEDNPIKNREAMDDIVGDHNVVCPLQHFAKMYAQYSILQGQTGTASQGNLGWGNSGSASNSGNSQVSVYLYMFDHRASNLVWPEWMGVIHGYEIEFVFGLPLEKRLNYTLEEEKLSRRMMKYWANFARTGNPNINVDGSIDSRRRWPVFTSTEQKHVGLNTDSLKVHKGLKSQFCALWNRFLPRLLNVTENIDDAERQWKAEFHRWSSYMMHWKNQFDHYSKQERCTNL

SMILES | IC50 [1] | inhibition [2] | Activity [3] | IC50 [4]
O=C1c2ccccc2-c2nccc3cc(OCCCN4CCN(CCO)CC4)cc1c23 | 0.19 µM | 9.7% | Active | > 100 µM
CC1CCCCN1CCCCOc1cc2c3c(nccc3c1)-c1ccccc1C2=O (stereo unspecified) | 0.25 µM | 34.8% | Active | 4.15 µM
CN1CCN(CCCCOc2cc3c4c(nccc4c2)-c2ccccc2C3=O)CC1 | 1.41 µM | 25.4% | Active | > 100 µM
CN1CCN(CCOc2cc3c4c(nccc4c2)-c2ccccc2C3=O)CC1 | 0.86 µM | 18.5% | Active | > 100 µM
O=C1c2ccccc2-c2nccc3cc(OCCCCN4CCN(CCO)CC4)cc1c23 | 0.92 µM | 26.1% | Active | > 100 µM
CN1CCN(CCCOc2cc3c4c(nccc4c2)-c2ccccc2C3=O)CC1 | 0.82 µM | 29.1% |  | > 100 µM
O=C1c2ccccc2-c2nccc3cc(OCCN4CCCCC4)cc1c23 | 3.69 µM | 27.5% | Active | 6.71 µM
O=C1c2ccccc2-c2nccc3cc(OCCCN4CCOCC4)cc1c23 | 10.2 µM | 23.5% | Active | > 100 µM
